Results published in patent US11434242B2, “Dopamine-b-hydroxylase inhibitors” (BIAL-PORTELA & Cª, S.A., priority 2017, dated 2022).
Marks after values point to notes of the source that are not given here.

Biological target: T1, Dopamine beta hydroxylase (Homo sapiens, UniProt P09172)
T1 construct: 125 μl of plasma; tissue Instituto Português do Sangue Transplantação; host or cells: human plasma from healthy donors
T1 sequence (P09172 40-617 limits assumed): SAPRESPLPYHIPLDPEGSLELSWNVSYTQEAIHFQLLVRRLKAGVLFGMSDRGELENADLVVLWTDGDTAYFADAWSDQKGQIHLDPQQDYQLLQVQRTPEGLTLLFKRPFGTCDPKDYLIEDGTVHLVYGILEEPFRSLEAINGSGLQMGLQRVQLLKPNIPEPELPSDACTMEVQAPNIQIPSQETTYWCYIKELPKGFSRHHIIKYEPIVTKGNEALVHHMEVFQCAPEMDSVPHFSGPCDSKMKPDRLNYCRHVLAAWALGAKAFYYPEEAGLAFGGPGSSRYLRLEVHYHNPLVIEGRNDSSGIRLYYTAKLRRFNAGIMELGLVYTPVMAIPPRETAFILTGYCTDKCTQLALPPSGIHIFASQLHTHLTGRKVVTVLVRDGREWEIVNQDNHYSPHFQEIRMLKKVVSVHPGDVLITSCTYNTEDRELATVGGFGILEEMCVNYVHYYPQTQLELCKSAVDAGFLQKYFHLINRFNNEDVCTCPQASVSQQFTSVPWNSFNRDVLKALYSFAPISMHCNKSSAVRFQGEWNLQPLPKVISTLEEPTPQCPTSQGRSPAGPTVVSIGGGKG
Assay: Dopamine beta hydroxylase activity in human plasma
Type: biochemical
Settings: for Plasma (1 μM), activity in % of control: inhibitor 1 μM
Procedure, shortened: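 Healthy-donor human plasma pre-incubated 10 min at 37° C with compound at final 10, 100 or 1000 nM in pH 5.0 acetate buffer with ascorbate, fumarate, pargyline, N-ethylmaleimide, catalase and copper sulfate. Tyramine substrate then added for 45 min; octopamine formed was isolated by SCX cartridge, periodate-converted and read at 330 nm; activity given as % control.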

Row | SMILES | Plasma (0.01 μM), activity in % of control (inhibitor 0.01 μM) | Plasma (0.1 μM), activity in % of control (inhibitor 0.1 μM) | Plasma (1 μM), activity in % of control | Plasma (0.01 μM), activity in % of control, re-test (asterisked) (inhibitor 0.01 μM, re-tested under the same experimental conditions, asterisked data believed to be correct) | Plasma (0.1 μM), activity in % of control, re-test (asterisked) (inhibitor 0.1 μM, re-tested under the same experimental conditions, asterisked data believed to be correct)
1 | O=C(Cc1[nH]c(=S)n2c1C[C@H](c1c(F)ccc(F)c1F)C2)N[C@H]1CCOC1 [Example 370, 2-((R)-6-(2,3,6-trifluorophenyl)-3-thioxo-2,5,6,7-tetrahydro-3H-pyrrolo[1,2-c]imidazol-1-yl)-N—((S)-tetrahydrofuran-3-yl)acetamide] | 88.5 % of control | 64.7 % of control |  |  | 
2 | O=C(Cc1[nH]c(=S)n2c1C[C@H](c1c(F)ccc(Br)c1F)C2)N[C@@H]1CCOC1 [Example 116, 2-((R)-6-(3-bromo-2,6-difluorophenyl)-3-thioxo-2,5,6,7-tetrahydro-3H-pyrrolo[1,2-c]imidazol-1-yl)-N—((R)-tetrahydrofuran-3-yl)acetamide] | 93.8 % of control | 68.8 % of control |  |  | 
3 | NC(=O)Cc1[nH]c(=S)n2c1C[C@@H](c1c(F)ccc(Cl)c1F)C2 [Example 108, (S)-2-(6-(3-chloro-2,6-difluorophenyl)-3-thioxo-2,5,6,7-tetrahydro-3H-pyrrolo[1,2-c]imidazol-1-yl)acetamide] |  | 46.9 % of control | 5.3 % of control |  | 
4 | CN(C(=O)Cc1c2n(c(=S)n1C)C[C@H](c1c(F)ccc(Cl)c1F)C2)C1CCOCC1 [Example 373, (S)-2-(6-(3-chloro-2,6-difluorophenyl)-2-methyl-3-thioxo-2,5,6,7-tetrahydro-3H-pyrrolo[1,2-c]imidazol-1-yl)-N-methyl-N-(tetrahydro-2H-pyran-4-yl)acetamide] | 66.1 % of control | 12.8 % of control |  |  | 
5 | Cl.Cn1c(CCNC2CCCC2)c2n(c1=S)C[C@@]1(c3cc(Cl)ccc3F)C[C@@H]21 [Example 322, (5aS,6aR)-5a-(5-chloro-2-fluorophenyl)-1-(2-(cyclopentylamino)ethyl)-2-methyl-5,5a,6,6a-tetrahydrocyclopropa[3,4]pyrrolo[1,2-c]imidazole-3(2H)-thione Hydrochloride] | 62.3 % of control | 43.4 % of control |  |  | 
6 | Cn1c(CC(=O)NCC(F)(F)F)c2n(c1=S)C[C@@H](c1c(F)c(F)cc(F)c1F)C2 [Example 315, (R)-2-(2-methyl-6-(2,3,5,6-tetrafluorophenyl)-3-thioxo-2,5,6,7-tetrahydro-3H-pyrrolo[1,2-c]imidazol-1-yl)-N-(2,2,2-trifluoroethyl)acetamide] | 67.0 % of control | 17.0 % of control |  | 94.0* % of control | 53.3* % of control
7 | O=C(Cc1[nH]c(=S)n2c1C[C@H](c1c(F)cccc1F)C2)N[C@@H]1CCOC1 [Example 77, 2-((R)-6-(2,6-difluorophenyl)-3-thioxo-2,5,6,7-tetrahydro-3H-pyrrolo[1,2-c]imidazol-1-yl)-N—((R)-tetrahydrofuran-3-yl)acetamide] |  | 87.2 % of control | 38.9 % of control |  | 
8 | Cn1c(CC(=O)O)c2n(c1=S)C[C@H](c1cc(Cl)ccc1F)C2 [Example 230, (S)-2-(6-(5-chloro-2-fluorophenyl)-2-methyl-3-thioxo-2,5,6,7-tetrahydro-3H-pyrrolo[1,2-c]imidazol-1-yl)acetic acid] | 82.0 % of control | 41.6 % of control |  |  | 
9 | Fc1ccc(Br)c(F)c1[C@@H]1Cc2c(CCNC3CCC3)[nH]c(=S)n2C1 [Example 181, (S)-6-(3-bromo-2,6-difluorophenyl)-1-(2-(cyclobutylamino)ethyl)-2,5,6,7-tetrahydro-3H-pyrrolo[1,2-c]imidazole-3-thione] | 68.9 % of control | 18.3 % of control |  |  | 
10 | CCOC(=O)Cc1[nH]c(=S)n2c1C[C@H](c1c(F)cccc1F)C2 [Example 65, Ethyl (R)-2-(6-(2,6-difluorophenyl)-3-thioxo-2,5,6,7-tetrahydro-3H-pyrrolo[1,2-c]imidazol-1-yl)acetate] |  | 64.5 % of control | 12.6 % of control |  | 
11 | Cn1c(CC(=O)N[C@H]2CC[C@H](O)CC2)c2n(c1=S)C[C@@]1(c3cc(Br)ccc3F)C[C@@H]21 [Example 325, 2-((5aS,6aR)-5a-(5-bromo-2-fluorophenyl)-2-methyl-3-thioxo-2,3,5,5a,6,6a-hexahydrocyclopropa[3,4]pyrrolo[1,2-c]imidazol-1-yl)-N-((1r,4R)-4-hydroxycyclohexyl)acetamide] | 34.2 % of control | 3.8 % of control |  |  | 
12 | O=C(Cc1[nH]c(=S)n2c1[C@@H]1C[C@]1(c1cc(Br)ccc1F)C2)N[C@@H]1CCOC1 [Example 307, 2-((5aS,6aR)-5a-(5-bromo-2-fluorophenyl)-3-thioxo-2,3,5,5a,6,6a-hexahydrocyclopropa[3,4]pyrrolo[1,2-c]imidazol-1-yl)-N—((R)-tetrahydrofuran-3-yl)acetamide] | 73.9 % of control | 33.0 % of control |  |  | 

Further lines, results first:

Row | Plasma (0.01 μM), activity in % of control (inhibitor 0.01 μM) | Plasma (0.1 μM), activity in % of control (inhibitor 0.1 μM) | Plasma (1 μM), activity in % of control | Plasma (0.01 μM), activity in % of control, re-test (asterisked) (inhibitor 0.01 μM, re-tested under the same experimental conditions, asterisked data believed to be correct) | Plasma (0.1 μM), activity in % of control, re-test (asterisked) (inhibitor 0.1 μM, re-tested under the same experimental conditions, asterisked data believed to be correct) | SMILES
13 | 90.0 % of control | 40.7 % of control |  |  |  | CN(C(=O)Cc1c2n(c(=S)n1C)C[C@@H](c1c(F)c(F)cc(F)c1F)C2)C1CCOC1 (stereo partly drawn) [Example 375, N-methyl-2-((R)-2-methyl-6-(2,3,5,6-tetrafluorophenyl)-3-thioxo-2,5,6,7-tetrahydro-3H-pyrrolo[1,2-c]imidazol-1-yl)-N-(tetrahydrofuran-3-yl)acetamide]
14 | 75.2 % of control | 33.1 % of control |  |  |  | CN1C[C@@H](NC(=O)Cc2c3n(c(=S)n2C)C[C@@H](c2c(F)ccc(F)c2F)C3)CC1=O [Example 389, 2-((R)-2-methyl-3-thioxo-6-(2,3,6-trifluorophenyl)-2,5,6,7-tetrahydro-3H-pyrrolo[1,2-c]imidazol-1-yl)-N—((S)-1-methyl-5-oxopyrrolidin-3-yl)acetamide]
15 | 33.7 % of control | 1.5 % of control |  |  |  | [2H]C([2H])([2H])n1c(CC(=O)NC2CCOCC2)c2n(c1=S)C[C@H](c1c(F)ccc(Cl)c1F)C2 [Example 469, (S)-2-(6-(3-chloro-2,6-difluorophenyl)-2-(methyl-d)-3-thioxo-2,5,6,7-tetrahydro-3H-pyrrolo[1,2-c]imidazol-1-yl)-N-(tetrahydro-2H-pyran-4-yl)acetamide]
16 | 112.6 % of control | 64.4 % of control |  |  |  | Cn1c(CC(=O)O)c2n(c1=S)C[C@H](c1c(F)ccc(F)c1F)C2 [Example 409, (S)-2-(2-methyl-3-thioxo-6-(2,3,6-trifluorophenyl)-2,5,6,7-tetrahydro-3H-pyrrolo[1,2-c]imidazol-1-yl)acetic Acid]
17 | 102.6 % of control | 42.3 % of control |  |  |  | O=C(O)Cc1[nH]c(=S)n2c1C[C@@H](c1c(F)ccc(Cl)c1F)C2 [Example 407, (S)-2-(6-(3-chloro-2,6-difluorophenyl)-3-thioxo-2,5,6,7-tetrahydro-3H-pyrrolo[1,2-c]imidazol-1-yl)acetic acid]
